What all share (assay): whole plant or invertebrate
In assay [1] the test system is Aedes aegypti (Yellow fever mosquito). As to conditions: Aedes aegypti; for pest or weed control at 20 ppm: 1 h, read-out: Knockdown; for mortality at 20 ppm: 48 h. As for the experimental part:
[…] Once the deposits were dry, five non-blood fed adult female Aedes aegypti (between two to five days old) were added to each well, and sustained with a 10% sucrose solution in a cotton wool plug. Assessment of the knockdown after 1 hour, and mortality after 48 hours was carried out.
(§1) In case of multiple tests, the mean value is reported.

Assay [2] deals with Anopheles stephensi (Indian malaria mosquito). As to conditions: Anopheles stephensi; for pest or weed control at 20 ppm: 1 h, read-out: Knockdown; for mortality at 20 ppm: 48 h. The protocol:
[…] Once the deposits were dry, five non-blood fed adult female Anopheles stephensi (between two to five days old) were added to each well, and sustained with a 10% sucrose solution in a cotton wool plug. Assessment of the knockdown after 1 hour, and mortality after 48 hours was carried out.
as §1

The test system of another assay is Aedes aegypti. The note with it: Aedes aegypti, 48 h. As for the experimental part: (§2) The individual wells of six (6) well tissue culture plates were treated with 250 μl of an ethanol solution containing a test compound at a defined concentration. Once the deposits were dry, ten non-blood fed adult female Aedes aegypti or Anopheles stephensi (each between two to five day old) were added to each well, and sustained with a 10% sucrose solution in a cotton wool plug.
(§3) Assessment of the mortality was carried out at 48 hours.
(§4) Each treatment was replicated twice, with the mean mortality recorded.

Another assay deals with Anopheles stephensi. The note with it: Anopheles stephensi, 48 h. As for the experimental part:
as §2, §3, §4

On to `CO/C=C(/C(=O)OC)c1ccccc1COc1ncccc1Cl` [F, reference compound], for which the pest or weed control at 20 ppm was 0% in assay [1] and 60% in assay [2]. The mortality at 20 ppm in assay [1] stood at 60%; in assay [2], 100%. For the same compound, the mortality at 5 ppm in the assay with Aedes aegypti came to 30%; with Anopheles stephensi, 20%.
On to `CO/C=C(/C(=O)OC)c1ccccc1COc1cccc(C(C)(C)C)n1` [P], for which, in assay [1], the pest or weed control at 20 ppm stood at 0% and the mortality at 20 ppm was 0%.
Turning to `CO/C=C(/C(=O)OC)c1ccccc1COc1nc2ccc(C(F)(F)F)cc2nc1C(F)(F)F` [W], in assay [1], the pest or weed control at 20 ppm was 0% and the mortality at 20 ppm is 0%.
As for `CO/C=C(/C(=O)OC)c1ccccc1CO/N=C(\C)c1cccc(C(F)(F)F)n1` [H], in assay [1], the pest or weed control at 20 ppm amounted to 0% and the mortality at 20 ppm came to 0%.
Regarding `CCCc1cccc(OCc2ccccc2/C(=C\OC)C(=O)OC)n1` [Compound 16], the pest or weed control at 20 ppm in assay [1] amounted to 0%; in assay [2], 20%. For the same compound, the mortality at 20 ppm came out at 80% in assay [1] and 100% in assay [2]. For the same compound, the mortality at 5 ppm with Aedes aegypti came out at 20%; in the assay on Anopheles stephensi, 95%.
As to `CO/C=C(/C(=O)OC)c1ccccc1CCc1cc(C(F)(F)F)ccn1` [E], in assay [1], the pest or weed control at 20 ppm is 0% and the mortality at 20 ppm worked out at 0%.
Turning to `CO/C=C(/C(=O)OC)c1ccccc1CO/N=C(\C)c1cc(C(F)(F)F)ccn1` [Compound 15], the pest or weed control at 20 ppm was 50% in assay [1] and 40% in assay [2]. Also, the mortality at 20 ppm in assay [1] and in assay [2] was 100% throughout. Further, the results for the mortality at 5 ppm in the assay on Aedes aegypti and in the assay with Anopheles stephensi were 70% and 95%, respectively.
As for `C=CCOC(=O)c1cccn1/C(=C\OC)C(=O)OC` [AB, reference compound], the pest or weed control at 20 ppm turned out to be 60% in assay [1] and 100% in assay [2]. The mortality at 20 ppm in assay [1] and in assay [2] was 100% each time. Further, the mortality at 5 ppm in the assay on Aedes aegypti was found to be 75%; in the assay with Anopheles stephensi, 80%.
For `CO/C=C(/C(=O)OC)c1ccccc1Oc1nnc(C(C)(C)C)s1` [Y], in assay [1], the pest or weed control at 20 ppm was determined as 0% and the mortality at 20 ppm came to 0%.
With `CO/C=C(/C(=O)OC)c1ccccc1COc1nc2cc(C(F)(F)F)ccc2nc1C(F)(F)F` [V], in assay [1], the pest or weed control at 20 ppm was found to be 0% and the mortality at 20 ppm stood at 0%.
Regarding `CCCCc1c(C)c2ccc(OCc3ccccc3/C(=C\OC)C(=O)OC)cc2oc1=O` [T, Coumoxystrobin], in assay [1], the pest or weed control at 20 ppm was 0% and the mortality at 20 ppm turned out to be 0%.
As to `CO/C=C(/C(=O)OC)c1ccccc1COc1ncccc1C(F)(F)F` [Compound 19, Methyl (E)-3-methoxy-2-[2-[[3-(trifluoromethyl)-2-pyridyl]oxymethyl]phenyl]prop-2-enoate], the figures for the pest or weed control at 20 ppm in assay [1] and in assay [2] were 20% and 40%, respectively. In addition, the mortality at 20 ppm in assay [1] and in assay [2] was 100% in each case. For the same compound, the mortality at 5 ppm was found to be 75% in the assay with Aedes aegypti and 100% in the assay with Anopheles stephensi.
With `CO/C=C(/C(=O)OC)c1ccccc1Oc1nc(CC(C)(C)C)ns1` [M], in assay [1], the pest or weed control at 20 ppm amounted to 0% and the mortality at 20 ppm was determined as 0%.
For `CO/C=C(/C(=O)OC)c1ccccc1Oc1nccc(OC(C)(C)C)n1` [N], in assay [1], the pest or weed control at 20 ppm worked out at 0% and the mortality at 20 ppm is 0%.
For the compound `CO/C=C(/C(=O)OC)c1ccccc1COc1cccc(C(F)(F)F)n1` [AC, Picoxystrobin, reference compound], the pest or weed control at 20 ppm amounted to 0% in assay [1] and 100% in assay [2]. For the same compound, the results for the mortality at 20 ppm in assay [1] and in assay [2] were 40% and 100%, respectively. Further, the mortality at 5 ppm in the assay with Aedes aegypti is 4%; with Anopheles stephensi it was 75%.
On to `CO/C=C(/C(=O)OC)c1ccccc1CO/N=C(\C)c1cc(C(F)(F)F)ncn1` [G], for which, in assay [1], the pest or weed control at 20 ppm stood at 0% and the mortality at 20 ppm came to 0%.
As to `CO/C=C(/C(=O)OC)c1ccccc1COc1nccnc1C#N` [X], in assay [1], the pest or weed control at 20 ppm worked out at 0% and the mortality at 20 ppm amounted to 0%.
With `CO/C=C(/C(=O)OC)c1ccccc1Oc1nccc(C(C)(C)C)n1` [Compound 14], in assay [1], the pest or weed control at 20 ppm came to 0% and the mortality at 20 ppm is 40%. Further, in assay [2], the pest or weed control at 20 ppm turned out to be 0% and the mortality at 20 ppm was 100%.
For the compound `CO/C=C(/C(=O)OC)c1ccccc1COc1nc(F)c(F)cc1F` [Compound 23], the pest or weed control at 20 ppm in assay [1] is 100%; in assay [2], 20%. Also, the mortality at 20 ppm in assay [1] and in assay [2] was 100% in each case. Also, the figures for the mortality at 5 ppm in the assay with Aedes aegypti and in the assay with Anopheles stephensi were 60% and 93%, respectively.
As for `CO/C=C(/C(=O)OC)c1ccccc1Oc1ncnc(C2CC2)n1` [O], in assay [1], the pest or weed control at 20 ppm came out at 0% and the mortality at 20 ppm stood at 0%.
Consider `CN/C(C)=N/OCc1ccccc1/C(=C\OC)C(=O)OC` [Q], for which, in assay [1], the pest or weed control at 20 ppm was determined as 0% and the mortality at 20 ppm came to 0%.
With `CCC(CC)/C(C)=N/OCc1ccccc1/C(=C\OC)C(=O)OC` [L], in assay [1], the pest or weed control at 20 ppm was 0% and the mortality at 20 ppm amounted to 0%.
As for `CO/C=C(/C(=O)OC)c1ccccc1Oc1cc(C(F)(F)F)ncn1` [Compound 11, methyl (E)-3-methoxy-2-[2-[6-(trifluoromethyl)pyrimidin-4-yl]oxyphenyl]prop-2-enoate], the pest or weed control at 20 ppm came out at 100% in assay [1] and 80% in assay [2]. In addition, the mortality at 20 ppm in assay [1] and in assay [2] was 100% in each case.
As for `CO/C=C(/C(=O)OC)c1ccccc1Oc1cc(Cl)ccn1` [I], in assay [1], the pest or weed control at 20 ppm turned out to be 0% and the mortality at 20 ppm amounted to 40%.
For `CCCc1nnc(Oc2ccccc2/C(=C\OC)C(=O)OC)o1` [K], in assay [1], the pest or weed control at 20 ppm was found to be 0% and the mortality at 20 ppm was determined as 0%.
In the case of `CO/C=C(/C(=O)OC)c1ccccc1COc1ncc(C(F)(F)F)cc1C(F)(F)F` [Compound 21], the pest or weed control at 20 ppm in assay [1] came out at 50%; in assay [2] it was 100%. The mortality at 20 ppm was determined as 90% in assay [1] and 100% in assay [2]. The mortality at 5 ppm in the assay with Aedes aegypti was found to be 85%; in the assay on Anopheles stephensi it was 100%.
Take `CCC(C)c1noc(Oc2ccccc2/C(=C\OC)C(=O)OC)n1` (centres unmarked) [Z]: in assay [1], the pest or weed control at 20 ppm was found to be 0% and the mortality at 20 ppm turned out to be 0%.
Regarding `CCCCO/N=C(C)/C(C)=N/OCc1ccccc1/C(=C\OC)C(=O)OC` [B], in assay [1], the pest or weed control at 20 ppm was 0% and the mortality at 20 ppm amounted to 0%.
With `CO/C=C(/C(=O)OC)c1ccccc1COc1cc(C(F)(F)F)nc(OC(C)C)n1` [C, Fluacrypyrim], in assay [1], the pest or weed control at 20 ppm amounted to 0% and the mortality at 20 ppm is 0%.
As to `CO/C=C(/C(=O)OC)c1ccccc1Oc1cncc(OCC(F)(F)F)n1` [Compound 3], in assay [1], the pest or weed control at 20 ppm stood at 0% and the mortality at 20 ppm worked out at 100%. For the same compound, in assay [2], the pest or weed control at 20 ppm was 100% and the mortality at 20 ppm came out at 100%.
With `CCc1nnc(Oc2ccccc2/C(=C\OC)C(=O)OC)s1` [AD], in assay [1], the pest or weed control at 20 ppm was determined as 0% and the mortality at 20 ppm came to 0%.
Consider `CO/C=C(/C(=O)OC)c1ccccc1Oc1cc(OCC(F)(F)F)ncn1` [J], for which, in assay [1], the pest or weed control at 20 ppm is 0% and the mortality at 20 ppm came to 0%.
Regarding `CO/C=C(/C(=O)OC)c1ccccc1CO/N=C(C)/C(C)=N/OC` [Compound 1], the pest or weed control at 20 ppm in assay [1] came out at 50%; in assay [2], 40%. Also, the mortality at 20 ppm was 90% in assay [1] and 100% in assay [2]. The results for the mortality at 5 ppm with Aedes aegypti and in the assay with Anopheles stephensi were 74% and 100%, respectively.
As to `CO/C=C(/C(=O)OC)c1ccccc1COc1cc(C(F)(F)F)nc(Nc2ccc(Cl)cc2Cl)n1` [U, Pyriminostrobin], in assay [1], the pest or weed control at 20 ppm turned out to be 0% and the mortality at 20 ppm turned out to be 0%.
As for `CO/C=C(/C(=O)OC)c1ccccc1Oc1ncc(C(C)(C)C)s1` [AA], in assay [1], the pest or weed control at 20 ppm was found to be 0% and the mortality at 20 ppm worked out at 0%.
Take `CO/C=C(/C(=O)OC)c1ccccc1Oc1ncc([N+](=O)[O-])s1` [D]: in assay [1], the pest or weed control at 20 ppm worked out at 0% and the mortality at 20 ppm is 0%.
As to `CO/C=C(/C(=O)OC)c1ccccc1Oc1cc(C(C)(C)C)ncn1` [Compound 9], in assay [1], the pest or weed control at 20 ppm was found to be 0% and the mortality at 20 ppm is 80%. For the same compound, in assay [2], the pest or weed control at 20 ppm turned out to be 100% and the mortality at 20 ppm turned out to be 100%.
On to `CO/C=C(/C(=O)OC)c1ccccc1COc1cc(-c2ccc(Cl)cc2)nn1C` [S, Pyraoxystrobin], for which, in assay [1], the pest or weed control at 20 ppm was 0% and the mortality at 20 ppm worked out at 0%.
As to `CO/C=C(/C(=O)OC)c1ccccc1CO/N=C(C)/C=C/c1ccc(Cl)cc1` [R, Enoxastrobin], in assay [1], the pest or weed control at 20 ppm worked out at 0% and the mortality at 20 ppm came out at 0%.

The values are drawn from US11882828B2, “Mosquito vector control compositions, methods and products utilizing same” (priority 2015, dated 2024).
